Measurements taken from ChEMBL document CHEMBL5036333, “Cryptoyunnanones A-H, Complex Flavanones from Cryptocarya yunnanensis” (J Nat Prod, 2021).
Where a name gives a salt, the structure may show the parent alone.

Legend:
Assay type in all cases: functional, cell-based
MDA-MB-231 = assay: Cytotoxicity against human MDA-MB-231 cells assessed as cell growth inhibition measured after 48 hrs by MTT assay; settings: MDA-MB-231, 48 h
A549 = assay: Cytotoxicity against human A549 cells assessed as cell growth inhibition measured after 48 hrs by MTT assay; settings: A549, 48 h
PC-3 = assay: Cytotoxicity against human PC-3 cells assessed as cell growth inhibition measured after 48 hrs by MTT assay; settings: PC-3, 48 h
HCT-116 = assay: Cytotoxicity against human HCT-116 cells assessed as cell growth inhibition measured after 48 hrs by MTT assay; settings: HCT-116, 48 h

SMILES	IC50 (MDA-MB-231) [µM]	IC50 (A549) [µM]	IC50 (PC-3) [µM]	IC50 (HCT-116) [µM]
O=C(O)CCC[C@@H]1C[C@@H]2C[C@@](/C=C/c3ccccc3)(Oc3cc(O)c4c(c32)O[C@H](c2ccccc2)CC4=O)O1	> 10	> 10	> 10	> 10
O=C(O)CCC[C@@H]1C[C@@H]2C[C@@](/C=C/c3ccccc3)(Oc3cc(O)c4c(c32)O[C@@H](c2ccccc2)CC4=O)O1	> 10	> 10	> 10	> 10
O=C1C=CC[C@H](C[C@@H]2C[C@@H]3C[C@@](/C=C/c4ccccc4)(Oc4cc(O)c5c(c43)O[C@@H](c3ccccc3)CC5=O)O2)O1	9.1	> 10	7.6	9
O=C1C=CC[C@H](C[C@@H]2C[C@@H]3C[C@@](/C=C/c4ccccc4)(Oc4cc(O)c5c(c43)O[C@H](c3ccccc3)CC5=O)O2)O1	9.1	> 10	7.8	8.1
O=C1C=CC[C@H](C[C@@H]2C[C@@H]3C[C@@](CCc4ccccc4)(Oc4cc(O)c5c(c43)O[C@H](c3ccccc3)CC5=O)O2)O1	8.6	> 10	7.2	6.4
O=C1C=CC[C@H](C[C@@H]2C[C@@H]3C[C@@](CCc4ccccc4)(Oc4cc(O)c5c(c43)O[C@@H](c3ccccc3)CC5=O)O2)O1	8.5	> 10	7.2	6.9
COC(=O)CCC[C@@H]1C[C@@H]2C[C@@](/C=C/c3ccccc3)(Oc3cc(O)c4c(c32)O[C@H](c2ccccc2)CC4=O)O1	> 10	> 10	> 10	> 10
COC(=O)CCC[C@@H]1C[C@@H]2C[C@@](/C=C/c3ccccc3)(Oc3cc(O)c4c(c32)O[C@@H](c2ccccc2)CC4=O)O1	> 10	> 10	> 10	> 10
COc1cccc2c1C(=O)c1c(O)c3c(c(O)c1C2=O)C[C@@](O)(C(=O)CO)C[C@@H]3O[C@H]1C[C@H](N)[C@H](O)[C@H](C)O1 [DOXORUBICIN HYDROCHLORIDE]	0.2		0.2	
